Consider two compounds from patent US5214174A, “Platinum complex and anti-tumor agent comprising said complex as active ingredient” (Tsumura & Co., priority 1989, dated 1993).

Where only a bound is given, the exact number is not on record here.

Series [1] deals with Mouse leukemia L1210 cells. Put plainly: Anti-tumor effect (life prolongation) in mice transplanted with L1210 cells. The format is in vivo, mouse (female BDF1). Conditions: abdominal cavity; for ILS30 (dose giving a 30% life-prolonging effect over the control group) / ILSmax (dose giving a highest life-prolonging effect) / TR (cure ratio; ILSmax/ILS30) / T/C (life prolongation ratio) / ratio of the number of surviving mice to the number of tested mice / Average Survival Day Number: once a day for 3 days; for ratio of the number of surviving mice to the number of tested mice: 30th day; for Average Survival Day Number: 30 days. The protocol: Mouse leukemia L1210 cells (1×10^5) were transplanted into the abdominal cavity of a 6-weeks-old female BDF1 mouse. Then, continuously for 3 days from the next day, a compound of a compound obtained in an example described below or CDDP was administered to the abdominal cavity once a day. In the control group, physiological saline solution alone was similarly administered.
The anti-tumor effect was evaluated based on the life prolongation ratio (T/C value) determined from the average survival day numbers of the group of the compound obtained in the example and the control group after 30 days from the transplantation of L1210. On the 30th day from the transplantation, the experiment was concluded. In the case of mice surviving for more than 30 days, the survival day number was regarded as 30. [formula] The average survival day number at each dose, the T/C value (%) and the ratio of the number of surviving mice upon termination of the experiment to the number of tested mice are shown in Table 2. The ILS30 value (the dose giving a 30% life-prolonging effect over the control group), the ILSmax value (the dose giving a highest life-prolonging effect), the TR value (cure ratio; ILSmax /ILS30) and the CR value (the ratio of the number of mice completely cured at the ILSmax value and the number of mice showing no propagation of a tumor after 30 days from the transplantation to the number of tested mice) are shown in Table 3.
Note, 1 indicates the ratio of the number of surviving mice to the number of tested mice.

The next series is described as follows: Acute toxicity test. The class given is in vivo, mouse (male, ICR family). Conditions: administration into the abdominal cavity, male ICR mice.
The test system of series [2] is T24 human bladder cancer cells. As to the kind of experiment: Inhibition of propagation of cancer cells, MTT method, 48 hours. Conditions: 37° C. The format is cell-based. The protocol: (§1) L1210 mouse leukemia cells, P388 mouse leukemia cells, Hela human uterine neck cancer cells, T24 human bladder cancer cells or MCF7 human mammary cancer cells were suspended in Eagle medium (Hela and T24) containing 10% bovine fetal serum, PRMI1640 medium (L1210 and MCF7) or PRM11740 medium (P388) mixed with 5×10^-5 M mercaptoethanol, and the cells were seeded on a 96-well plate at an inoculum size of 3×10^3 cells per hole. A compound obtained in an example described below or cysplatin (CDDP) was diluted with physiological saline solution and added to the medium at various concentrations. Culturing was conducted at 37° C. for 48 hours in a carbon dioxide incubator, and the propagation of cells was determined by the MTT [3-(4,5-dimethylthiazol-2-yl-)-2,5-diphenyl tetrazolium bromide] method (J. Immunol. Method, 65, 55, 1983). The absorbance A after 48 hours of culturing at each concentration, the absorbance B after 48 hours of culturing in the control, and the absorbance C before addition of the compound obtained in the example were determined, and the propagation reaction rate D of each concentration was calculated from the following formula: [formula] The concentration IC50, unit: μg/ml) of the compound obtained in the example giving the value corresponding to 50% of the value of the control was determined from the curve showing the relationship between the concentration of the compound obtained in the example and the propagation reaction rate.

Series [3] deals with MCF7 human mammary cancer cells. Described as above. The format is cell-based. The conditions noted are these: 37° C. The method, then:
as §1

Series [4] deals with L1210 mouse leukemia cells. The description is as above. The class given is cell-based. Conditions: 37° C. The protocol:
as §1

The subject of series [5] is P388 mouse leukemia cells. The series is described as above. The format is cell-based. Conditions: 37° C. The protocol:
as §1

Series [6] relates to Hela human uterine neck cancer cells. Described as above. The format is cell-based. The conditions noted are these: 37° C. The method, then:
as §1

As to `[NH2][Pt]([NH2])([Cl])[Cl]` [CDDP, cisplatin, reference compound], in series [1], the “ILS30 (dose giving a 30% life-prolonging effect over the control group)” value stood at 1.5 mg/kg. Further, the “ILSmax (dose giving a highest life-prolonging effect)” value in series [1] came to 6.0 mg/kg. Besides, the “TR (cure ratio; ILSmax/ILS30)” value in series [1] turned out to be 4. Besides, the “CR (ratio of mice completely cured at ILSmax and showing no propagation of a tumor after 30 days to tested mice)” value in series [1] is reported as 3/6. The compound further yielded an LD50 in the series “Acute toxicity test” of 14.6 mg/kg. In addition, the concentration for half-maximal inhibition (IC50) in series [2] came out at 1.51 µg/mL; in series [3], 3.28 µg/mL; in series [4], 0.46 µg/mL; in series [5], 0.09 µg/mL; in series [6], 1.42 µg/mL.
As for “1:1 mixture of oxalate-(1R,2R)-diaminocyclooctane platinum (II) and oxalate-(1S,2S)-diaminocyclooctane platinum (II) [Example 1]”, the “T/C (life prolongation ratio)” value in series [1] (0.3 mg/kg) was over 183%; in series [1] (1.0 mg/kg) it was over 214%; in series [1] (3.0 mg/kg), over 220%; in series [1] (10.0 mg/kg), over 326%. Besides, the “ratio of the number of surviving mice to the number of tested mice” value in series [1] (0.3 mg/kg) is listed as 1/6; in series [1] (1.0 mg/kg), 1/6; in series [1] (3.0 mg/kg), 2/6; in series [1] (10.0 mg/kg), 6/6. For the same compound, the “Average Survival Day Number” value was over 16.8 days in series [1] (0.3 mg/kg), over 19.7 days in series [1] (1.0 mg/kg), over 20.3 days in series [1] (3.0 mg/kg) and over 30.0 days in series [1] (10.0 mg/kg). In series [1], the “ILS30 (dose giving a 30% life-prolonging effect over the control group)” value was found to be 0.06 mg/kg. Moreover, in series [1], the “ILSmax (dose giving a highest life-prolonging effect)” value is given as 10.0 mg/kg. In addition, the “TR (cure ratio; ILSmax/ILS30)” value in series [1] was found to be 167. Besides, in series [1], the “CR (ratio of mice completely cured at ILSmax and showing no propagation of a tumor after 30 days to tested mice)” value is listed as 6/6. Besides, the IC50 amounted to 1.43 µg/mL in series [2]; 0.41 µg/mL in series [3]; 0.03 µg/mL in series [4]; 0.06 µg/mL in series [5]; 0.29 µg/mL in series [6].
